Tests used:
[1] = system: MG63 cells; test: Cell adhesion assay on coated culture plates; assay type: cell-based, human; settings: plates coated with 0.1 μM recombinant oligopeptide; control poly-L-lysine-coated plate; P<0.05
Experimental: (§1) MG63 cells (Korean Cell Line Bank, KCLB), used in the present invention, which is a human osteosarcoma cell line, were cultured in Dulbecco's modified Eagle's medium (DMEM) containing 10% (v/v) fetal bovine serum and 0.1% (w/v) gentamycin at 37° C., in a humidified 5% CO2 incubator.
24-well plates were coated with 0.1 μM recombinant oligopeptide or poly-L-lysine at a predetermined concentration overnight at 4° C. and blocked with PBS containing 1% (w/v) BSA for 30 min, then rinsed with PBS.
The MG63 cells were serum-starved for 24 hours, harvested in 0.02% (w/v) trypsin, 1 mM EDTA, and resuspended in DMEM. After being washed 3 times with DMEM containing 100 μg/Ml soybean trypsin inhibitor and 1% (w/v) BSA, 5×10^4 MG63 cells in DMEM were plated in each well to culture at 37° C. for 30 min or 1 hour. Suspensions of control cells were maintained in BSA-coated plates at a given time. After 30 min, adherent cells were washed twice with PBS, fixed with 3% (w/v) paraformaldehyde, and stained with 0.25% (w/v) Crystal Violet (Sigma, USA) in 2% (v/v) ethanol/water. After washing with distilled water, the plates were allowed to dry. The absorbancy was measured at 570 nm to represent the mean±SD (standard deviation). Non-specific adhesion was determined using 1% BSA as a negative control group. […]

[2] = system: MG63 cells; test: ALP (alkaline phosphatase) assay, osteoblastic cell differentiation; assay type: cell-based, human; settings: 7 days, control poly-L-lysine-coated
Experimental: as §1
In order to determine osteoblastic cell differentiation, ALP (Alkaline phosphatase) activity that implies in vitro bone formation activity, was measured. 5×10^4 MG63 cells were cultured in 0.1 μM recombinant oligopeptide-coated or poly-L-lysine-coated six-well plates for 7 days. Then, they were washed with PBS and lysed in 1.5 M Tris/HCl (pH 10.2) containing 1 mM ZnCl2, 1 mM MgCl2 and 1% (w/v) Triton X-100 at 4° C. for 10 min. After clarifying the cell lysates by centrifugation, the ALP activity was assayed according to the manufacturer's protocol for the ALP assay kit (Sigma, USA).

Substance: DPHSRN-SITGTNLTPGYTITVYAVTG-RGD (DPHSRNSITGTNLTPGYTITVYAVTGRGD) [F20]
- cell adhesion capacity (absorbance at 570 nm) compared with control plates [1]: 2 fold
- ALP activity of MG63 cells compared with control plates ([2]; 0.1 μM oligopeptide-coated plates): 2.5 fold
- ALP activity of MG63 cells compared with control plates ([2]; 0.1 μM oligopeptide-coated six-well plates, n=3, P<0.05): 2.5 times
